# The source made the active and inactive calls.
# Tests used:
# [1] = test system: Escherichia coli; assay: microbe, parasite or virus in culture
# [2] = target: T1, Short transient receptor potential channel 4 (Mus musculus, UniProt Q9QUQ5); assay: block of DAMGO-driven TRPC4 calcium entry – cell-based, HEK293 TRPC4/mu-opioid, Fluo-4 calcium, dose response (AID 434942); format: functional;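 note: potency of inhibitors blocking the TRPC4 calcium response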
# T1 sequence (Q9QUQ5 whole entry): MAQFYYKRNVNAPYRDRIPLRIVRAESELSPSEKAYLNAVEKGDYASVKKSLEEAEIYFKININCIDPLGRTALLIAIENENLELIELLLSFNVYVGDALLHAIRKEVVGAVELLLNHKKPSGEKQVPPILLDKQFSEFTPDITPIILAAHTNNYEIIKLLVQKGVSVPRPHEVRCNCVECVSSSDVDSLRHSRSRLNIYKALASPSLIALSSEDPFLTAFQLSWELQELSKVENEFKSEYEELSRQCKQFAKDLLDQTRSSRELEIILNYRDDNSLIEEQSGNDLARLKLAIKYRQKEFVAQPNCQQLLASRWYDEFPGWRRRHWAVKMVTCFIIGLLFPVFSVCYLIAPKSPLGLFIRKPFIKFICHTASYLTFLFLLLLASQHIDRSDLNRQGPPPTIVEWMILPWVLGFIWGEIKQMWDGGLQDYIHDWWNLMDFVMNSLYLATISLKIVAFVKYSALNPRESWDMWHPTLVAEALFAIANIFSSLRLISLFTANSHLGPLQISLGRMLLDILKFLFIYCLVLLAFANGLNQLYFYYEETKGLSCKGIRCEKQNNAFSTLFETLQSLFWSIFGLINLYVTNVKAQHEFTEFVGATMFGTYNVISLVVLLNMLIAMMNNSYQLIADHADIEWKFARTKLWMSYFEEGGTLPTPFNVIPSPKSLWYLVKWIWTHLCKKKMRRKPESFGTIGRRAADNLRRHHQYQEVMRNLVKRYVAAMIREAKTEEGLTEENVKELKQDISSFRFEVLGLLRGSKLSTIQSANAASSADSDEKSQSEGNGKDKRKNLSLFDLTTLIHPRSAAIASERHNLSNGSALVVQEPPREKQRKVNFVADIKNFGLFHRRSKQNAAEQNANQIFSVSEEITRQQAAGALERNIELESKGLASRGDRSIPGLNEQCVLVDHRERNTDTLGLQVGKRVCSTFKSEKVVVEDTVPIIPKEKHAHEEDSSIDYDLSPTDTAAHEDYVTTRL
# [3] = test system: Escherichia coli; assay: microbe, parasite or virus in culture; remark: listed apart in the source
# [4] = target: Troponin, cardiac muscle (Homo sapiens, UniProt P19429+P45379+P63316); assay: Fluorescence-based biochemical high throughput dose response assay for activators of the calcium sensitivity of cardiac Regulated Thin Filaments (RTF). [Related pubchem assays (depositor defined):AID493008, AID493018, AID504382, AID504383]; format: protein-complex assay
# [5] = target: T2, Corticotropin-releasing factor receptor 2/Corticotropin-releasing factor-binding protein (Homo sapiens, UniProt P24387+Q13324); assay: activators of CRF receptor 2 with binding protein – uHTS hits, confirmation (AID 602473); format: functional; conditions: read-out: EC50_Mean
# T2 sequence (Q13324 whole entry): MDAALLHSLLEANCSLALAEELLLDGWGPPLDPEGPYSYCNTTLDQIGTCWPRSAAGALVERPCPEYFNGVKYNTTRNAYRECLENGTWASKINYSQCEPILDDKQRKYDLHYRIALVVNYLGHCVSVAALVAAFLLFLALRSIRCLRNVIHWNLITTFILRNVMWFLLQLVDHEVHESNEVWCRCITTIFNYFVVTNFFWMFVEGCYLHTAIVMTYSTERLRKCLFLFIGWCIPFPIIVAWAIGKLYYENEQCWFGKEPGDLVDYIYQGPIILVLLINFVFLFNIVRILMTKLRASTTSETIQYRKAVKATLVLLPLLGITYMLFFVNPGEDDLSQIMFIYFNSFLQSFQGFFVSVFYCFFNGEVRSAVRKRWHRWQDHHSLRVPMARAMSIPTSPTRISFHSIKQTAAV
# T2 sequence (P24387 whole entry): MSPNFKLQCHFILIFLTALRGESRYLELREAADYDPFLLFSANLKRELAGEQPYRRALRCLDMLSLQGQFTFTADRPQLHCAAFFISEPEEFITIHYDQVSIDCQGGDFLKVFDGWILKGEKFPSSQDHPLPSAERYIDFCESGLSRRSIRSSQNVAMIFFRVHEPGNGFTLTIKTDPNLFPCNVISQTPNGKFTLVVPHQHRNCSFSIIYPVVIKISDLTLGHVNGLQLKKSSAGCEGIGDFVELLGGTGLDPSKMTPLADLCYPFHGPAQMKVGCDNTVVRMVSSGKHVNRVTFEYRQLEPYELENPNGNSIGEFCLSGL
# [6] = target: T3, Cytochrome P450 3A4 (Homo sapiens, UniProt P08684);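 note: CYP3A4 tested as one member of a cytochrome P450 panel screen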
# T3 sequence (P08684 whole entry): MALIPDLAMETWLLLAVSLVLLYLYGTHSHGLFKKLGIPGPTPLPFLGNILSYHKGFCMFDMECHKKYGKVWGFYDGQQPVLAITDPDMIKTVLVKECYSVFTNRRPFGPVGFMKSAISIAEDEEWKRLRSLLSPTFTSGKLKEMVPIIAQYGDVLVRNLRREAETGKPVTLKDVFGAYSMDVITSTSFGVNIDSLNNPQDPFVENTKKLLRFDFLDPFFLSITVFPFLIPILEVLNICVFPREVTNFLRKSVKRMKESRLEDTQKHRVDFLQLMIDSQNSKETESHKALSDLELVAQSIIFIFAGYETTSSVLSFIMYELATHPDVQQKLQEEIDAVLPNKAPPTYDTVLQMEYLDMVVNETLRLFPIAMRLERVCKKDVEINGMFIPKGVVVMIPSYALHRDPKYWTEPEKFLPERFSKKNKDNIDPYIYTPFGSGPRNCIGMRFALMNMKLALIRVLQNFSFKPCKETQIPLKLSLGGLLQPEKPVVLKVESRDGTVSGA
# [7] = target: Delta-type opioid receptor (Homo sapiens, UniProt P41143); assay: Counterscreen for agonists of heterodimerization of the mu 1 (OPRM1) and delta 1 (OPRD1) opioid receptors: Luminescence-based cell-based high throughput dose response assay to identify agonists of OPRD1 homodimerization. [Related pubchem assays (depositor defined):AID504326, AID504355, AID504692, AID504904, AID504905]; format: functional
# Sequence of Delta-type opioid receptor (P41143 whole entry): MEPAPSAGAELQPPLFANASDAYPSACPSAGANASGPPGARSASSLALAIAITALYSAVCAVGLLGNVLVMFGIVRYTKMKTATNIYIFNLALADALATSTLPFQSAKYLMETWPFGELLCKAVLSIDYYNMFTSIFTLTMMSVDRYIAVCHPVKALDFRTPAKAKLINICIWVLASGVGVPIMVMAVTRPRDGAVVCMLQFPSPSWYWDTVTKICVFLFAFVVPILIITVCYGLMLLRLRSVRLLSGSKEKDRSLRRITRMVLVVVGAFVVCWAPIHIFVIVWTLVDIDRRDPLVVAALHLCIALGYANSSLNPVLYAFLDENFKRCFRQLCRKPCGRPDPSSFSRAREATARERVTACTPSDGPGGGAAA
# [8] = target: 5-hydroxytryptamine receptor 5A (Homo sapiens, UniProt P47898); assay: Counterscreen for agonists of OPRM1-OPRD1 heterodimerization: luminescence-based cell-based high throughput dose response assay to identify agonists of 5-hydroxytryptamine (serotonin) 5A receptor (HTR5A). [Related pubchem assays (depositor defined):AID504326, AID504355, AID504692, AID504904, AID504905]; format: functional
# Sequence of 5-hydroxytryptamine receptor 5A (P47898 whole entry): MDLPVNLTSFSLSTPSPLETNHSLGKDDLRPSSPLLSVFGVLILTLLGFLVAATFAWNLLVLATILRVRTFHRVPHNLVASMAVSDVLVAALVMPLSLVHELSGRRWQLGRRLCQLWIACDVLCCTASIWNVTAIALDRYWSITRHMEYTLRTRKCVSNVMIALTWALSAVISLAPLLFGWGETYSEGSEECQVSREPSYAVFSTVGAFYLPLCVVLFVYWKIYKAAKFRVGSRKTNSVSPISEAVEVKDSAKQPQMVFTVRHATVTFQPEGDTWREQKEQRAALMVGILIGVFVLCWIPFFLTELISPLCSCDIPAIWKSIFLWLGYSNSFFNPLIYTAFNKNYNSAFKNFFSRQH
# [9] = target: Mu-type opioid receptor (Homo sapiens, UniProt P35372); assay: Counterscreen for agonists of heterodimerization of the mu 1 (OPRM1) and delta 1 (OPRD1) opioid receptors: Luminescence-based cell-based high throughput dose response assay to identify agonists of OPRM1 homodimerization.; format: functional;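 note: U2OS cells expressing OPRM1 and beta-arrestin as split beta-galactosidase partners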
# Sequence of Mu-type opioid receptor (P35372 whole entry): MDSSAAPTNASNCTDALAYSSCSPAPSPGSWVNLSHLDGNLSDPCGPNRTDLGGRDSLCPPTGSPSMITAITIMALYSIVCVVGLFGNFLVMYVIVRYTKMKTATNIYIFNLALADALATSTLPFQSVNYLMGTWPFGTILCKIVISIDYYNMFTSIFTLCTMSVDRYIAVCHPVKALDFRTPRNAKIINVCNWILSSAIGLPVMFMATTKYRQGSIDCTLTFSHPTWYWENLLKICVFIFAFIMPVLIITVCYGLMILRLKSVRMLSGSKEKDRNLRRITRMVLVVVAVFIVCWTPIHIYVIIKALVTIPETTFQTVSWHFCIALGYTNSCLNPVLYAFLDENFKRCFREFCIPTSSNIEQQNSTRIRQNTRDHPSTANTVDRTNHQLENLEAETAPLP
# [10] = target: Cytochrome P450 2D6 (Homo sapiens, UniProt P10635);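 note: CYP2D6 member of a cytochrome P450 panel assay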
# Sequence of Cytochrome P450 2D6 (P10635 whole entry): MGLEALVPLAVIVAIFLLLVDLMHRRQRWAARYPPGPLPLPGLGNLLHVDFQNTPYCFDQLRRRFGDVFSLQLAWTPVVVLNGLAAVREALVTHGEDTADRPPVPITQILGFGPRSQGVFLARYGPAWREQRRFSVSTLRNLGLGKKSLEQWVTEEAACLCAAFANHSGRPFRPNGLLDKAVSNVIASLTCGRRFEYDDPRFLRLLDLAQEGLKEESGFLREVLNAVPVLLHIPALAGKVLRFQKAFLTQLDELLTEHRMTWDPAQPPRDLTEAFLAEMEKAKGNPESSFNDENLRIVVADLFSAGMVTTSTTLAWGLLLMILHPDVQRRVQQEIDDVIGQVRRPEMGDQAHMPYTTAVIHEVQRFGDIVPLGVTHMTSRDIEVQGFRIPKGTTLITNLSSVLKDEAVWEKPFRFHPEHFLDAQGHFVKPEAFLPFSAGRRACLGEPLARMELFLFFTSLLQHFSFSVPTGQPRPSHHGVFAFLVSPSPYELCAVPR
# [11] = target: T3, Cytochrome P450 3A4; remark: listed apart in the source
# [12] = target: DNA dC->dU-editing enzyme APOBEC-3A (Homo sapiens, UniProt P31941); assay: Dose Response confirmation of small molecule APOBEC3A DNA Deaminase Inhibitors via a fluorescence-based single-stranded DNA deaminase assay. [Related pubchem assays (depositor defined):AID493011, AID493024]; format: functional
# Sequence of DNA dC->dU-editing enzyme APOBEC-3A (P31941 whole entry): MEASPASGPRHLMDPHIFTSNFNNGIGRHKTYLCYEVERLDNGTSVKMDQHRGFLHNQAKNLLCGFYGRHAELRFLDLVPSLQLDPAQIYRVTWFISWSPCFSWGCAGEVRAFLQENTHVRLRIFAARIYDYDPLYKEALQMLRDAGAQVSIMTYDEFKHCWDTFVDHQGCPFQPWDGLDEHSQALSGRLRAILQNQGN
# [13] = target: DNA dC->dU-editing enzyme APOBEC-3G (Homo sapiens, UniProt Q9HC16); format: functional;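 note: Dose-response counterscreen measuring inhibition of APOBEC3G DNA deaminase activity, run while confirming APOBEC3A inhibitors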
# Sequence of DNA dC->dU-editing enzyme APOBEC-3G (Q9HC16 whole entry): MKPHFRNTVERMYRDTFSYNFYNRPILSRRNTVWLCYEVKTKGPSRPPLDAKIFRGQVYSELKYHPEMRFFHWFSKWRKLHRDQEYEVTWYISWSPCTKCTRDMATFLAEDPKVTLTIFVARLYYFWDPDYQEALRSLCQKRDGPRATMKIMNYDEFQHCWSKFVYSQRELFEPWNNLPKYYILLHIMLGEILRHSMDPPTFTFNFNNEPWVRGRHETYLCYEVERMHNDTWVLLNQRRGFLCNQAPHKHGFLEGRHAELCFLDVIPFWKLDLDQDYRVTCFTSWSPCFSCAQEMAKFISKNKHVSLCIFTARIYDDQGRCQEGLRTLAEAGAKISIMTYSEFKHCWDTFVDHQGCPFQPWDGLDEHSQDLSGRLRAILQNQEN
# [14] = target: T4, Protein skinhead-1 (Caenorhabditis elegans, UniProt P34707); format: functional
# T4 sequence (P34707 whole entry): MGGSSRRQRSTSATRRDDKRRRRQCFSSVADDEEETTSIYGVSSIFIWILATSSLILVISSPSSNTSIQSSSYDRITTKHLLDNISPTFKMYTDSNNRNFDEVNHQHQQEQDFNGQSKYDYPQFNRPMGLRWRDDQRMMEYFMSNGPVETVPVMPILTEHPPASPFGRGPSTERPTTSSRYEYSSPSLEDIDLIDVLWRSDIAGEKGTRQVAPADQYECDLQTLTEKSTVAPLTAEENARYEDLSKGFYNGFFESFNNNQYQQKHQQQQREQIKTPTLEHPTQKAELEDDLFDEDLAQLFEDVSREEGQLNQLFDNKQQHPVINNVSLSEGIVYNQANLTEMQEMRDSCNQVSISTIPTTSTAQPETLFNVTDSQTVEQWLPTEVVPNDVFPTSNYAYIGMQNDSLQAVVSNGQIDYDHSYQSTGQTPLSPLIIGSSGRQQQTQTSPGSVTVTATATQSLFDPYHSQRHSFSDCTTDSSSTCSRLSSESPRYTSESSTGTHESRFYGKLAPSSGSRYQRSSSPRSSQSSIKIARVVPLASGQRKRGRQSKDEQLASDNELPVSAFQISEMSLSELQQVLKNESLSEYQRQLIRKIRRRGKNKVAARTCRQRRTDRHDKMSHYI
# [15] = target: T1, Short transient receptor potential channel 4; assay: calcium entry via TRPC4 opening agents – cell-based, HEK293 TRPC4/mu-opioid, Fluo-4 calcium, dose response (AID 434937); format: functional
# [16] = target: Dual specificity tyrosine-phosphorylation-regulated kinase 1A (Rattus norvegicus, UniProt Q63470); format: biochemical, Homo sapiens
# [17] = Luminescence Cell-Based Dose Confirmation HTS to Identify Inhibitors of Platelet Dense Granule Release. [Related pubchem assays: 1663 (Primary HTS), 1678 (Summary of Project)]; format: functional
# [18] = target: Luciferin 4-monooxygenase (Photinus pyralis, UniProt P08659); assay: inhibition of purified Photinus pyralis luciferase – biochemical, luminescence, dose response (AID 1891)
# Sequence of Luciferin 4-monooxygenase (P08659 whole entry): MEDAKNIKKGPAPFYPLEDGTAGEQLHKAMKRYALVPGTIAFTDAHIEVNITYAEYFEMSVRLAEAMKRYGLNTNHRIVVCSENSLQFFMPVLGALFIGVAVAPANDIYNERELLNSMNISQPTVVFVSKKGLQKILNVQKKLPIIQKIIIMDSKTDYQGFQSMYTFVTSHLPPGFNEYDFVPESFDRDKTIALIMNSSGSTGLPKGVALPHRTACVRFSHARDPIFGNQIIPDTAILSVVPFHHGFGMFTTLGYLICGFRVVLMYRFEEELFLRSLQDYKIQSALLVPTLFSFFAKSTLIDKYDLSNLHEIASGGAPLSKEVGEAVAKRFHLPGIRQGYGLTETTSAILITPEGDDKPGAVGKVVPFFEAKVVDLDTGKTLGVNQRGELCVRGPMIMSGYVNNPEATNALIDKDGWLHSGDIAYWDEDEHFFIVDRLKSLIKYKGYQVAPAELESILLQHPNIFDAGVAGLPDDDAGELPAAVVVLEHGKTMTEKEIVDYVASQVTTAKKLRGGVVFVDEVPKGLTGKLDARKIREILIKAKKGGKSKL
# [19] = target: T5, Trace amine-associated receptor 1 (Homo sapiens, UniProt Q96RJ0); assay: Counterscreen for agonists of the human trace amine associated receptor 1 (hTAAR1): Fluorescence-based cell-based high throughput dose response assay to identify hTAAR1 agonist that also desensitize TAAR1 receptor response.; format: functional
# T5 sequence (Q96RJ0 whole entry): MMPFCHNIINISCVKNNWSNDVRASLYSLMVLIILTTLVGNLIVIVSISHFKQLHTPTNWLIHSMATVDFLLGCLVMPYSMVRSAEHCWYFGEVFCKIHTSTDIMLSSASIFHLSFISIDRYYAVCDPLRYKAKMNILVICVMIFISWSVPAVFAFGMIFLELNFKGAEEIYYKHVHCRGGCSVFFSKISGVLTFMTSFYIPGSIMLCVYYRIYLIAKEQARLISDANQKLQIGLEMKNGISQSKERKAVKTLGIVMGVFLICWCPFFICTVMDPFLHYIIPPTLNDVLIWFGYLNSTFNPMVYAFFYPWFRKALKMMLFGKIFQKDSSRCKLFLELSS
# [20] = target: T5, Trace amine-associated receptor 1; assay: Fluorescence-based cell-based high throughput dose response assay to identify agonists of the human trace amine associated receptor 1 (TAAR1).; format: functional
# [21] = cells; format: functional, cell-based
# [22] = cells; format: functional, cell-based; remark: listed apart in the source
# [23] = test system: INS1; assay: INS-1E survival protection against cytokine death – cell-based, luminescence, retest, dose response (AID 449756); format: functional; conditions: Rattus norvegicus;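 note: cell death triggered by IL-1 beta plus TNF-alpha plus IFN-gamma mixture; protective hits raise ATP signal compared with cytokine alone wells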
# [24] = target: T6, Cytochrome P450 1A2 (Homo sapiens, UniProt P05177);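 note: PubChem cytochrome P450 panel assay, CYP1A2 panel member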
# T6 sequence (P05177 whole entry): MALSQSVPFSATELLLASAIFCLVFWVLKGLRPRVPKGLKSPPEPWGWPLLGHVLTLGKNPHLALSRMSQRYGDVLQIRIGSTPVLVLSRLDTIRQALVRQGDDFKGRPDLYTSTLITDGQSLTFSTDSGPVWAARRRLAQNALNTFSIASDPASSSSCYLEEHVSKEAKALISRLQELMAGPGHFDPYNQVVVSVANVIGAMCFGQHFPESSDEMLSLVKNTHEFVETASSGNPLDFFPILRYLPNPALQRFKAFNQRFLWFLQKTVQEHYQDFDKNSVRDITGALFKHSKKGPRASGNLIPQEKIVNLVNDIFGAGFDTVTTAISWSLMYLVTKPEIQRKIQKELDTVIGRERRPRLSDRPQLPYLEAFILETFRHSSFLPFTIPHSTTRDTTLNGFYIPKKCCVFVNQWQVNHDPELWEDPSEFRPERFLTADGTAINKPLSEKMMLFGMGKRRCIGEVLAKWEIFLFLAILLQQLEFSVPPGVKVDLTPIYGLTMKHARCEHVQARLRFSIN
# [25] = target: Cytochrome P450 2C9 (Homo sapiens, UniProt P11712)
# Sequence of Cytochrome P450 2C9 (P11712 whole entry): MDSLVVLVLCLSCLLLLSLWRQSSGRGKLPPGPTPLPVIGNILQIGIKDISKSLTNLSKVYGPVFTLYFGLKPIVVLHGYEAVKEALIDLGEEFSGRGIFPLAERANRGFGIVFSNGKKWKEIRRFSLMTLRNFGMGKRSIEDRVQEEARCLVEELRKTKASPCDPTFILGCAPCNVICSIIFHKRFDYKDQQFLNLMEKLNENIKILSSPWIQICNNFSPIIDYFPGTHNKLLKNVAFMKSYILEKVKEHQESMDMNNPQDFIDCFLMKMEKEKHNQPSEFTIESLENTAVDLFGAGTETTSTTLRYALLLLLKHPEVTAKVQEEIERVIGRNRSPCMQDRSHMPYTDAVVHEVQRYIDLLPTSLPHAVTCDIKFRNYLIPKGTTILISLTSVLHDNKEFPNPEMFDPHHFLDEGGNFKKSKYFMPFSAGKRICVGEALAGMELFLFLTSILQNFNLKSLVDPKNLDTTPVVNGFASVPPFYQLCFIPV
# [26] = target: Cytochrome P450 2C19 (Homo sapiens, UniProt P33261); assay: Cytochrome panel assay with activity outcomes. Panel member name: p450-cyp2c19 Compounds with AC50 equal or less than 10 uM are considered active; format: functional
# Sequence of Cytochrome P450 2C19 (P33261 whole entry): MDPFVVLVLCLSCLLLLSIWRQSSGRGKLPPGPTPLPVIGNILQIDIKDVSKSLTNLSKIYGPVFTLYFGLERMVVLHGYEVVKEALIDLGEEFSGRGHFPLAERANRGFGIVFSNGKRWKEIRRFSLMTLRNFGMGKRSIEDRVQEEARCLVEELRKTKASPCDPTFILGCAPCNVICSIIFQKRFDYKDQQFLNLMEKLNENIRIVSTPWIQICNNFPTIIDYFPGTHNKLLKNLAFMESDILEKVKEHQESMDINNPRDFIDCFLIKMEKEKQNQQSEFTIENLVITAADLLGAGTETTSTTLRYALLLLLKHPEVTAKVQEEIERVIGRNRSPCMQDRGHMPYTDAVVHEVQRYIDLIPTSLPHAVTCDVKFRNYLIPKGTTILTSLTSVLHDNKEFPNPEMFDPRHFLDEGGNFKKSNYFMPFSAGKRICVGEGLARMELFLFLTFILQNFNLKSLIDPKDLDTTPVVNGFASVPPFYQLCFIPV
compound,measurement,setting,value
c1ccc(NC(=NCc2ccco2)c2ccccc2)cc1,AC50,[1],47.6 µM (active)
same,EC50,[2],18.8 µM (active)
CCOC(=O)N1CCC(NC(=O)c2oc3c(c2C)-c2n[nH]cc2CC3)CC1,AC50,[1],67 µM (active)
same,AC50,[3],18.4 µM (active)
Cc1ccc(N2C(=O)C3C(C(=O)c4ccccc4)=NN(c4ccccc4)C3C2=O)cc1 (stereo not given),EC50,[4],17.9 µM (inactive)
same,EC50,[5],22.2 µM (active)
N#Cc1cccc(-c2nc3cnc(Oc4cccc(Cl)c4)nc3n(C3CC3)c2=O)c1,AC50,[6],inconclusive
OC(CNCCC(c1ccccc1)c1ccccc1)COc1ccccc1 (stereo not given),EC50,[7],> 92.5 µM (inactive)
same,EC50,[8],> 92.5 µM (inactive)
same,EC50,[9],> 92.5 µM (inactive)
CO[C@@H]1COC(=O)[C@@H](C)NC(=O)C/C=C\[C@@H](C)[C@H](NS(=O)(=O)c2ccc(C)cc2)COC(=O)[C@H](C)NC(=O)C/C=C\[C@H]1C,AC50,[10],inconclusive
same,AC50,[11],5.01 µM (inconclusive)
COC(=O)C1=C(C)N(Cc2ccccc2)C(NCCc2ccccn2)=N[C@H]1c1cccc(F)c1,IC50,[12],2.67 µM (active)
same,IC50,[13],4.79 µM (active)
same,IC50,[14],> 100 µM (inactive)
same,EC50,[15],5.96 µM (active)
O=c1oc2c(-c3cccc(F)c3)cc(O)cc2s1,AC50,[16],3.74 µM (active)
Nc1nc(Nc2cccc(F)c2)nc2ccccc12,EC50,[17],7.18 µM (active)
same,EC50,[18],0.853 µM (active)
same,IC50,[19],1.65 µM (active)
same,EC50,[20],0.364 µM (active)
same,IC50,[21],> 29.9 µM (inactive)
same,AC50,[16],4.73 µM (active)
same,EC50,[22],> 29.9 µM (inactive)
CC(C)=NOC[C@@H](O)COCc1ccco1,AC50,[10],inconclusive
O=[N+]([O-])c1ccc(CSc2ncnc3c2ncn3[C@@H]2O[C@@H](CO)[C@@H](O)[C@H]2O)cc1,AC50,[6],inconclusive
CCc1n[nH]c(CCN)n1,EC50,[15],3.76 µM (active)
CC1(C)CCN2CCC(C)(C)c3c(O)ccc1c32,EC50,[4],3.33 µM (active)
same,AC50,[23],7.71 µM (active)
Clc1ccc(OCCNCCc2ccccc2)cc1,IC50,[19],9.59 µM (active)
same,EC50,[20],3.81 µM (active)
same,IC50,[21],> 29.9 µM (inactive)
same,EC50,[15],4.73 µM (active)
same,EC50,[22],21.9 µM (inactive)
O=C(N/N=C/C1=C(N2CCOCC2)C(=C\c2ccccc2)/CC1)Nc1ccccc1,AC50,[1],67.6 µM (active)
N[C@@H](CCC(=O)O)C(=O)O [GLUTAMIC ACID],AC50,[24],39.8 µM (inconclusive)
same,AC50,[10],inactive
same,AC50,[25],inactive
same,AC50,[6],inactive
same,AC50,[26],inactive

# Reference: ChEMBL document CHEMBL1201862, “PubChem BioAssay data set” (2004)
